# System: 227483-062-R1-J1-PDC complex spheroids with HUVEC/MSC, viability
# Assay: Anticancer human tumor 227483-062-R1-J1-PDC patient-derived pancreatic carcinoma cell line growth inhibition [CLK]
# Conditions: for IC50: curve of first compound; for viability, T/C: stronger effect = lower value
# Text: A high-throughput screen of multi-cell type tumor spheroids was designed to identify active combinations of […] and targeted small molecules. Complex spheroids include a stromal component modeled by human endothelial cells (HUVEC) and fibroblasts modeled by human mesenchymal stem cells (MSCs). The concentration ranges selected for each drug and investigational agent were based upon clinically achievable concentrations if the clinical Cmax of the agent was known.
# Compounds. The drugs and investigational agents: cirtuvivint (SM08502; NSC835563), CC-671 (NSC850746), vemurafenib (NSC761431), tapotoclax (NSC804041), sotorasib (NSC818433), adagrasib (NSC831453), MRTX-1133 (NSC836407), BAY2416964 (NSC825713), copanlisib (NSC816437), inavolisib (NSC800729), abemaciclib (NSC768073), osimertinib (NSC779217), entinostat (NSC756642), eltanexor (KPT-8602, NSC794443), venetoclax (NSC766270), ceralasertib (NSC777638), bortezomib (NSC756655), olaparib (NSC753686), talazoparib (NSC767125), alisertib (NSC759677), peposertib (NSC802822), gemcitabine (NSC613327), 5-fluorouracil (NSC19893), SN-38 (NSC673596), oxaliplatin (NSC266046), paclitaxel (NSC125973), and doxorubicin (NSC123127), were obtained from the National Cancer Institute (NCI) Developmental Therapeutics Program Chemical Repository. The FDA-approved anticancer drug set is available from the Developmental Therapeutics Program at https://dtp.cancer.gov/organization/dscb/obtaining/available plates.htm. […] The stock solutions were prepared in dimethyl sulfoxide (DMSO, Sigma-Aldrich, St. Louis, MO, cat. D2650), except for the platinum complexes which were prepared in saline (Quality Biological, Gaithersburg, MD, cat. 114-055-101), at 800-fold the tested concentration and stored at -70 degrees C prior to their use. All drugs and investigational agents were tested over a range starting from a high concentration at or near the clinical Cmax and decreasing in half-log increments. If the clinical Cmax for an agent had not been determined, the highest concentration tested was 10 microM.
# Cell Culture. All cells were maintained in an incubator at 37 degrees C and 5% CO2 with 95% humidity. The PDC lines were cultured according to standard operating procedures established by the NCI PDMR. Briefly, all PDCs were thawed and cultured in Matrigel-coated flasks prepared with a working solution of 1X Ham's F-12 nutrient mix, without supplementation (Invitrogen, Waltham, MA, cat. 11765054), 100 U/mL penicillin-streptomycin (Invitrogen, cat. 15140122), and 2.5% Matrigel (Corning Inc., Corning, NY, cat. 354248) for the first three passages. The 947758-054-R-J2-PDC line was cultured in 6B/Colon 1A media, which includes advanced DMEM/F-12 (Thermo Fisher Scientific, cat. 12634028), 10 mM HEPES (Thermo Fisher Scientific, cat. 15630080), 1X GlutaMAX supplement (Thermo Fisher Scientific, cat. 35050061), 0.1 mg/mL primocin (InvivoGen, cat. ant-pm-2), 10% defined fetal bovine serum, heat inactivated (HyClone Laboratories Inc., cat. SH30070.03HI), 1.25 mM N-Acetyl-L-cysteine (Sigma-Aldrich, cat. A9165), 10 mM nicotinamide (Sigma-Aldrich, cat. N0636), 1X B-27 supplement (Thermo Fisher Scientific, cat. 17504044), 1X N-2 supplement (Thermo Fisher Scientific, cat. 17502048), and 10 microM Y-27632 dihydrochloride (Tocris Bioscience, cat. 1254). The 876862-298-R-J1-PDC was cultured in 6E media, which includes all 6B/Colon 1A media components plus 50% L-WRN conditioned media (ATCC, cat. CRL-3276), 50 ng/mL recombinant human EGF recombinant protein (hEGF; Thermo Fisher Scientific, cat. PHG0311), 10 ng/mL recombinant human fibroblast growth factor 10 (hGFG-10; PeproTech, cat. 100-26), 1 ng/mL recombinant human fibroblast growth factor 2 (hFGF-2; PeproTech, cat. 100-18B), and 1 µM prostaglandin E2 (PGE2; Tocris, cat. 2296). The 227483-062-R1-J1-PDC line was cultured in Panc media, containing all 6E components except hFGF-2, with the addition of 500 nM SB-431542 (Selleckchem, cat. S1067) and 10 nM gastrin (Tocris, cat. 3006). […]
# [1] = second compound 0.0316 µM, first compound 0.0316 µM
# [2] = second compound 0.0316 µM, first compound 0.1 µM
# [3] = second compound 0.0316 µM, first compound 0.316 µM
# [4] = second compound 0.0316 µM, first compound 1 µM
# [5] = second compound 0.0316 µM, first compound 3.16 µM
# [6] = second compound 0.0316 µM, first compound 10 µM
# [7] = second compound 0.1 µM, first compound 0.0316 µM
# [8] = second compound 0.1 µM, first compound 0.1 µM
# [9] = second compound 0.1 µM, first compound 0.316 µM
# [10] = second compound 0.1 µM, first compound 1 µM
# [11] = second compound 0.1 µM, first compound 3.16 µM
# [12] = second compound 0.1 µM, first compound 10 µM
# [13] = second compound 0.316 µM, first compound 0.0316 µM
# [14] = second compound 0.316 µM, first compound 0.1 µM
# [15] = second compound 0.316 µM, first compound 0.316 µM
# [16] = second compound 0.316 µM, first compound 1 µM
# [17] = second compound 0.316 µM, first compound 3.16 µM
# [18] = second compound 0.316 µM, first compound 10 µM
# [19] = second compound 1 µM, first compound 0.0316 µM
# [20] = second compound 1 µM, first compound 0.1 µM
# [21] = second compound 1 µM, first compound 0.316 µM
# [22] = second compound 1 µM, first compound 1 µM
# [23] = second compound 1 µM, first compound 3.16 µM
# [24] = second compound 1 µM, first compound 10 µM
# [25] = second compound 3.16 µM, first compound 0.0316 µM
# [26] = second compound 3.16 µM, first compound 0.1 µM
# [27] = second compound 3.16 µM, first compound 0.316 µM
# [28] = second compound 3.16 µM, first compound 1 µM
# [29] = second compound 3.16 µM, first compound 3.16 µM
# [30] = second compound 3.16 µM, first compound 10 µM
# [31] = second compound 10 µM, first compound 0.0316 µM
# [32] = second compound 10 µM, first compound 0.1 µM
# [33] = second compound 10 µM, first compound 0.316 µM
# [34] = second compound 10 µM, first compound 1 µM
# [35] = second compound 10 µM, first compound 3.16 µM
# [36] = second compound 10 µM, first compound 10 µM
# 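Note: spheroids exposed to compounds for seven days before readout.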
# 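Throughout, for viability, T/C: percent of DMSO vehicle control luminescence as 100% viability.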
structure (smiles),measurement,setting,value
CCCS(=O)(=O)Nc1ccc(F)c(C(=O)c2c[nH]c3ncc(-c4ccc(Cl)cc4)cc23)c1F + CN1CCN(c2cc(C(=O)Nc3cc4cc(-c5cnn(C)c5)ccc4cn3)ccn2)CC1,IC50,second compound 0.0316 µM,> 10000 nM
same,IC50,second compound 0.1 µM,5270 nM
same,IC50,second compound 0.316 µM,< 31.6 nM
same,IC50,second compound 1 µM,< 31.6 nM
same,IC50,second compound 3.16 µM,< 31.6 nM
same,IC50,second compound 10 µM,< 31.6 nM
same,"viability, T/C",[1],115%
same,"viability, T/C",[2],98%
same,"viability, T/C",[3],92.6%
same,"viability, T/C",[4],111%
same,"viability, T/C",[5],113%
same,"viability, T/C",[6],98.8%
same,"viability, T/C",[7],59.5%
same,"viability, T/C",[8],63.6%
same,"viability, T/C",[9],62.2%
same,"viability, T/C",[10],95.5%
same,"viability, T/C",[11],57.5%
same,"viability, T/C",[12],32.8%
same,"viability, T/C",[13],5.7%
same,"viability, T/C",[14],6.53%
same,"viability, T/C",[15],5.51%
same,"viability, T/C",[16],4.08%
same,"viability, T/C",[17],8.45%
same,"viability, T/C",[18],5.43%
same,"viability, T/C",[19],4.51%
same,"viability, T/C",[20],1.83%
same,"viability, T/C",[21],3.28%
same,"viability, T/C",[22],1.8%
same,"viability, T/C",[23],2.28%
same,"viability, T/C",[24],2.25%
same,"viability, T/C",[25],3.73%
same,"viability, T/C",[26],4.36%
same,"viability, T/C",[27],3.99%
same,"viability, T/C",[28],4.7%
same,"viability, T/C",[29],5.81%
same,"viability, T/C",[30],4.4%
same,"viability, T/C",[31],4.02%
same,"viability, T/C",[32],2.72%
same,"viability, T/C",[33],2.7%
same,"viability, T/C",[34],3.39%
same,"viability, T/C",[35],3.28%
same,"viability, T/C",[36],2.76%
COC1C=CCC(C)C(C)S(=O)(=O)NC(=O)c2ccc3c(c2)N(CC2CCC21)CC1(CCCc2cc(Cl)ccc21)CO3 (centres undefined) + CN1CCN(c2cc(C(=O)Nc3cc4cc(-c5cnn(C)c5)ccc4cn3)ccn2)CC1,IC50,second compound 0.0316 µM,5880 nM
same,IC50,second compound 0.1 µM,306 nM
same,IC50,second compound 0.316 µM,< 31.6 nM
same,IC50,second compound 1 µM,< 31.6 nM
same,IC50,second compound 3.16 µM,< 31.6 nM
same,IC50,second compound 10 µM,< 31.6 nM
same,"viability, T/C",[1],94.5%
same,"viability, T/C",[2],89.8%
same,"viability, T/C",[3],109%
same,"viability, T/C",[4],87.1%
same,"viability, T/C",[5],82.4%
same,"viability, T/C",[6],23.2%
same,"viability, T/C",[7],74.2%
same,"viability, T/C",[8],77.4%
same,"viability, T/C",[9],45.6%
same,"viability, T/C",[10],25.9%
same,"viability, T/C",[11],14.9%
same,"viability, T/C",[12],9.47%
same,"viability, T/C",[13],5.64%
same,"viability, T/C",[14],6.22%
same,"viability, T/C",[15],4.57%
same,"viability, T/C",[16],5.41%
same,"viability, T/C",[17],4.64%
same,"viability, T/C",[18],2.38%
same,"viability, T/C",[19],1.87%
same,"viability, T/C",[20],1.41%
same,"viability, T/C",[21],1.74%
same,"viability, T/C",[22],2.02%
same,"viability, T/C",[23],3.06%
same,"viability, T/C",[24],3.77%
same,"viability, T/C",[25],4.46%
same,"viability, T/C",[26],3.64%
same,"viability, T/C",[27],3.99%
same,"viability, T/C",[28],2.73%
same,"viability, T/C",[29],2.81%
same,"viability, T/C",[30],1.89%
same,"viability, T/C",[31],4.15%
same,"viability, T/C",[32],2.18%
same,"viability, T/C",[33],2.3%
same,"viability, T/C",[34],2.91%
same,"viability, T/C",[35],2.23%
same,"viability, T/C",[36],1.54%

# — PubChem BioAssay AID2060623 (Molecular Pharmacology Branch, DTP, NCI, 2025)
